Laboratory results as given in patent US5731309A, “Substituted heteroalkyleneamine neurokinin antagonists” (Zeneca Limited, priority 1994, dated 1998).

How the values were obtained:
human NK1 receptor = biological target: T1, human NK1 receptor (Homo sapiens, UniProt P25103); assay: SP Receptor Binding Assay (Test A); conditions: antagonism of SP binding; human NK1 receptor expressed in MEL cells
T1 construct: expressed in transfected cells; host or cells: Mouse Erythroleukemia (MEL) cells
Source text: SP Receptor Binding Assay (Test A)
The human NK1 receptor was isolated and characterized as described in: B. Hopkins, et al. "Isolation and characterization of the human lung NK1 receptor cDNA" Biochem. Biophys. Res. Comm., 1991, 180, 1110-1117; and the NK1 receptor was expressed in Mouse Erythroleukemia (MEL) cells using a procedure similar to that described in Test B below.

human NK2 receptor = biological target: T2, human NK2 receptor (Homo sapiens, UniProt P21452); assay: Neurokinin A (NKA) Receptor Binding Assay (Test B); conditions: antagonism of NKA binding; human NK2 receptor expressed in MEL cells
T2 construct: expressed in transfected cells; host or cells: Mouse Erythroleukemia (MEL) cells
T2 sequence (P21452 1-398): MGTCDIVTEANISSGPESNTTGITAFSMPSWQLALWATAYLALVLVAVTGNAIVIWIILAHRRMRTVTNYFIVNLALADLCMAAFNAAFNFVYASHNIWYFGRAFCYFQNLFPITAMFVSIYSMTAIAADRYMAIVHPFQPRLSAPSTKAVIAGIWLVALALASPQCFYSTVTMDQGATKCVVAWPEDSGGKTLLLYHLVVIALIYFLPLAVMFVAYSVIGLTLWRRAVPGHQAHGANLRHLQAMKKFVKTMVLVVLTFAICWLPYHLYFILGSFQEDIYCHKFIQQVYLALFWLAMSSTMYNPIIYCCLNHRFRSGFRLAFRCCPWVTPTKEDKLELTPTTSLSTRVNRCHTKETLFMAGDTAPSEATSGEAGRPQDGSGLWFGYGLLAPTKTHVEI
Source text: Neurokinin A (NKA) Receptor Binding Assay (Test B)

NK1 receptor = biological target: T3, NK1 receptor (Oryctolagus cuniculus, UniProt G1SEI7); assay: Rabbit Pulmonary Artery: NK1 in vitro functional assay (Test C); set-up: species or system rabbit (male New Zealand white); conditions: -log molar KB, agonist ASMSP, read-out: pKB in Test C (converted)
T3 construct: The left and right branches of the pulmonary artery are isolated from the rest of the lung tissue; from tissue; host or cells: rabbit (male New Zealand white) pulmonary artery ring segments with intact endothelium
T3 sequence (G1SEI7 1-407): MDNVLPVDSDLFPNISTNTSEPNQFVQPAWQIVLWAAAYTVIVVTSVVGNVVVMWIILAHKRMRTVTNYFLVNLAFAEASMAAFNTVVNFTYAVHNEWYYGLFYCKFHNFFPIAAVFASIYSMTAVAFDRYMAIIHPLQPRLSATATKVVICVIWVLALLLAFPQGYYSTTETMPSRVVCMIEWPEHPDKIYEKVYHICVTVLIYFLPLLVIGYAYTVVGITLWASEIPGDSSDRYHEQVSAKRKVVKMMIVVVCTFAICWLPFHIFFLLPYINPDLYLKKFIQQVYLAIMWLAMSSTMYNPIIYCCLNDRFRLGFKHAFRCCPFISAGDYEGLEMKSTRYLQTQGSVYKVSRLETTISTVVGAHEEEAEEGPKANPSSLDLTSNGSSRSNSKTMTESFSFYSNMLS
Experimental: Rabbit Pulmonary Artery: NK1 in vitro functional assay (Test C)
Male New Zealand white rabbits are killed by lethal injection (Nembutal, 60 mg/kg into a cannulated ear vein). Heparin, 0.0025 ml/kg of a 1000 U/ml solution, is injected into the ear vein prior to nembutal in order to decrease blood coagulation. The left and right branches of the pulmonary artery are isolated from the rest of the lung tissue and cut in half to provide four ring segments from each animal. […] Changes in tension are measured on a Grass polygraph via Grass FT-03 force transducers. […]
Potencies of the compounds are determined by calculating the apparent dissociation constants (KB) for each concentration tested using the standard equation: […]
where dose ratio=antilog[(agonist-log molar EC50 without compound)-(agonist-log molar EC50 with compound)]. The KB values are converted to the negative logarithms and expressed as -log molar KB (i.e. pKB). […] The EC50 values are converted to negative logarithms and expressed as -log molar EC50. Maximum relaxation responses to ASMSP are determined by expressing the maximum response to the agonist as a percentage of the relaxation caused by papaverine.

NK2 receptor = biological target: T4, NK2 receptor (Cavia porcellus, UniProt Q64077); assay: Guinea Pig Trachea Assay: NK2 in vitro functional assay (Test D); conditions: -log molar KB, agonist BANK, read-out: pKB in Test D (converted)
T4 construct: The trachea are removed, trimmed of excess tissue (including removal of epithelium) and cut in spiral fashion; from tissue; host or cells: guinea pig trachea strips, epithelium removed
T4 sequence (Q64077 1-402): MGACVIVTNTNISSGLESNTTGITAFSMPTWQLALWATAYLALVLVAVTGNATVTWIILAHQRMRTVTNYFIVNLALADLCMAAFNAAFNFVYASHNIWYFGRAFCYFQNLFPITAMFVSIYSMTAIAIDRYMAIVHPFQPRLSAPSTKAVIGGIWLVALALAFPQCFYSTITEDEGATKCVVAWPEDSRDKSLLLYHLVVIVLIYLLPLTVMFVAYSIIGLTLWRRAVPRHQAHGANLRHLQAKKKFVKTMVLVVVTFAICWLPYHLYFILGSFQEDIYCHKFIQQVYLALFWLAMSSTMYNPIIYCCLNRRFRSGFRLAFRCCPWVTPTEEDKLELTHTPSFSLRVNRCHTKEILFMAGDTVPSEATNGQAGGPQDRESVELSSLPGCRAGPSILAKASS
Experimental: Guinea Pig Trachea Assay: NK2 in vitro functional assay (Test D)
Male guinea pigs are killed by a sharp blow to the back of the head followed by exsanguination. The trachea are removed, trimmed of excess tissue (including removal of epithelium) and cut in spiral fashion. Each longitudinally cut tracheal segment is suspended as a strip in a water-jacketed (37.5° C.) tissue bath containing a physiological salt solution of the following composition (mM): NaCl, 119; KCl 4.6; CaCl2, 1.8; MgCl2, 0.5; NaH2 PO4, 1; NaHCO3, 25; glucose, 11; and indomethacin, 0.005 (to inhibit cyclooxygenase); gassed continuously with 95% O2-%5 CO2. […] Contractile responses are measured on a Grass polygraph via Grass FT-03 force transducers. […]
Potencies of the compounds are evaluated by calculating apparent dissociation constants (KB) for each concentration tested using the standard equation: […]
where dose ratio=antilog[(agonist -log molar EC50 without compound)-(agonist-log molar EC50 with compound)]. The KB values are converted to the negative logarithms and expressed as -log molar KB (i.e. pKB). […] The EC50 values are converted to the negative logarithms and expressed as -log molar EC50. Maximum contractile responses to BANK are determined by expressing the maximum response to BANK as a percentage of the initial contraction caused by capasacin.

T1 sequence (P25103 whole entry): as the sequence (G1SEI7 1-407) above, with F12S, D189N, A369P, E371D, N376T, G386C, N391D, Y402S, M405V counted along it

| Ki (human NK1 receptor) [nM] | Ki (human NK2 receptor) [nM] | Kb (NK1 receptor) [nM] | Kb (NK2 receptor) [nM] | SMILES |
| --- | --- | --- | --- | --- |
| 430 | 13 | – | – | CC(=O)NC1(c2ccccc2)CCN(CCC(CNCCc2ccccc2)c2ccc(Cl)c(Cl)c2)CC1 (stereo not shown) [Example 3, 4-(4-acetamido-4-phenylpiperidino)-2-(3,4-dichlorophenyl)-N-(phenethyl)butylamine] |
| – | – | 955 | 3160 | CC(=O)NC1(c2ccccc2)CCN(CCC(CN(Cc2cc(C(F)(F)F)cc(C(F)(F)F)c2)C(C)=O)c2ccc(Cl)c(Cl)c2)CC1 (stereo not shown) [Example 10, 4-(4-Acetamido-4-phenylpiperidino)-N-acetyl-2-(3,4-dichlorophenyl)-N-[3,5-bis(trifluoromethyl)benzyl]butylamine] |
